Experiments:
[1] = test system: Endothelin-1 (ET-1) release from PASMCs; experiment: TGF-β1-stimulated ET-1 release from PASMCs (chemiluminescent immunoassay); type: cell-based, human; conditions: 1 μM; TGF-β1 10 ng/ml; PASMCs conditioned medium
Experimental: Endothelin-1 (ET-1) release from PASMCs was measured in conditioned media using a chemiluminescent immunoassay system (QuantiGlo®, R&D Systems, UK). Cells were grown to confluence in 24-well plates (5×10^4 cells per well) in DMEM containing 10% FBS and serum-deprived for 24-hours prior to stimulation with transforming growth factor-[…] (TGF-β1) (10 ng/ml) and treatment with pravastatin and NO-releasing pravastatin (Example 1 of WO 2004/105754). Release experiments were also conducted in the presence of mevalonic acid (MVA), farnesylpyrophosphate (FPP), geranylgeranylpyrophosphate (GGPP) and inhibitors of geranylgeranyl transferase (GGTI-2133), farnesyl transferase (FTI-277) and Rho Kinase (Y27632). Production of MMP-9 was induced by dual stimulation with tumour necrosis factor-α (TNF-α) (10 ng/ml) and phorbol 12-[…] 13-acetate (PMA) (0.1 μM) and measured in conditioned medium using a Biotrack® ELISA-based immunoassay (GE Healthcare, UK). In the presence of TGF-β1 (10 ng/ml), ET-1 production by PASMCs increased markedly, compared with control serum-deprived cells.

[2] = test system: Human pulmonary artery smooth muscle cells (PASMCs); experiment: DNA synthesis by [3H-methyl]-thymidine incorporation in PDGF-stimulated PASMCs; type: cell-based; conditions: PDGF-BB 5 ng/ml, 24 hours
Experimental: DNA synthesis was measured by [^3H-methyl]-thymidine incorporation over 24 hours as previously described.
Human pulmonary artery smooth muscle cells (PASMCs) were seeded in 48-well plates at a density of 5×10^4 cells/well in Dulbecc's modified Eagle medium (DMEM) containing 10% fetal bovine […] (FBS). Cells were allowed to adhere overnight, providing a monolayer of approximately 80-90% confluence, and then quiesced for 48 hours with daily changes in serum-free DMEM. Cells were subsequently incubated in fresh medium containing 0.25 μCi/well [^3H-methyl]-thymidine (GE Healthcare, Little Chalfont, Buck's, UK) and treated with pravastatin and NO-releasing pravastatin (Example 1 of WO 2004/105754) at stated concentrations in the presence and absence of recombinant human platelet-derived growth factor-BB (PDGF) (5 ng/ml). Four to six replicates were analysed per treatment and [^3H-methyl]-thymidine uptake determined by liquid scintillation analysis (2200CA TRI-CARB, United Technologies Packcard, Pangbourne, UK).

## CC[C@H](C)C(=O)O[C@H]1C[C@H](O)C=C2C=C[C@H](C)[C@H](CC[C@@H](O)C[C@@H](O)CC(=O)O)[C@H]21 [Pravastatin]
[1]
  ET-1 (% of TGF-β1): 89.9 ± 12.8 % of TGF-β1
[2]; 1 μM
  [3H-Methyl]-thymidine incorporation (% of PDGF): 95.0 ± 3.6 % of PDGF
[2]; 5 μM
  [3H-Methyl]-thymidine incorporation (% of PDGF): 92.5 ± 4.2 % of PDGF
[2]; 10 μM
  [3H-Methyl]-thymidine incorporation (% of PDGF): 89.5 ± 2.4 % of PDGF

Source: patent US20100174075A1, “USE OF NITRIC OXIDE-RELEASING STATINS IN THE TREATMENT OF PULMONARY ARTERIAL HYPERTENSION” (NICOX S.A., priority 2007, published 2010)
